Test results: patent US12661410B2, “Compounds for targeted degradation of RET” (C4 Therapeutics, Inc., priority 2020, dated 2026)
Positions count from the first letter of the chain named. Where two headings read alike, the source gives them in different places.

Columns and labels:
RET (658-1114) = molecular target: T1, RET (658-1114) (Homo sapiens, UniProt P07949); test: HiBiT-Degradation, RET wild-type degradation assay (Nano-Glo HiBiT Lytic), 293T.144 cells; assay type: cell-based; conditions: for DC50 / Emax: 6.0 hours; for DC50: read-out: 293T.144 RET (658-1114) 6.0 hours (DC50); for Emax: read-out: 293T.144 RET (658-1114) 6.0 hours (Emax)
T1 construct: 658-1114; expressed in transfected cells; host or cells: 293T.144 (293T cells, generated in-house)
T1 sequence (P07949 658-1114): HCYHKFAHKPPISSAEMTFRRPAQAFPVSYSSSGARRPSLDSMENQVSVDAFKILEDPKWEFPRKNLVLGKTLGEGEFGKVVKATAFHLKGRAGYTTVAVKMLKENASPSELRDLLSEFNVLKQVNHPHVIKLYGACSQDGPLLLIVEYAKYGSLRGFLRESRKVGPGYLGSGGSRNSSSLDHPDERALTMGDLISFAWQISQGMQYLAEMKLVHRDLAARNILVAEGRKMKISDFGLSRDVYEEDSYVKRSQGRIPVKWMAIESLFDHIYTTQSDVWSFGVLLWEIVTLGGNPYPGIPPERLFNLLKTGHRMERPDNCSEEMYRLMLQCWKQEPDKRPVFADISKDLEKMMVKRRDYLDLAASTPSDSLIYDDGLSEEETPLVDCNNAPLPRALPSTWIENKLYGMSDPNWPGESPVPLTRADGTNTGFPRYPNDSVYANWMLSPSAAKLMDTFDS
Outline: (§1)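 HEK293T lines expressing HiBiT-tagged RET kinase domain, wild-type (293T.144) or G810R (293T.165), treated 6 h in duplicate, 11-point half-log series from 10 μM top. Lytic HiBiT luminescence read; DC50 and Emax (% protein remaining) from dose-response curves.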

RET(KD: 658-1114 G810R) = molecular target: T2, RET(KD: 658-1114 G810R) (Homo sapiens, UniProt P07949, G810R); test: HiBiT-Degradation, RET G810R degradation assay (Nano-Glo HiBiT Lytic), 293T.165 cells; assay type: cell-based; conditions: for Emax / DC50: 6.0 hours; for Emax: % remaining protein, read-out: 293T.165 RET(KD: 658-1114 G810R) 6.0 hours (Emax); for DC50: read-out: 293T.165 RET(KD: 658-1114 G810R) 6.0 hours (DC50)
T2 construct: 658-1114; expressed in transfected cells; host or cells: 293T.165 (293T cells, generated in-house)
T2 sequence (P07949 658-1114 G810R): T1 sequence (P07949 658-1114) with G153R
Outline: as §1

[1] = half-maximal degradation concentration

SMILES | 293T.144 RET (658-1114) 6.0 hours (IP) [nM] (RET (658-1114); HiBiT-Degradation) | DC50 (RET (658-1114); HiBiT-Degradation) | Emax (RET (658-1114); HiBiT-Degradation) | Emax (RET(KD: 658-1114 G810R)) | DC50 (RET(KD: 658-1114 G810R); [1]) | 293T.165 RET(KD: 658-1114 G810R) 6.0 hours (Emax) (RET(KD: 658-1114 G810R); HiBiT-Degradation) | 293T.165 RET(KD: 658-1114 G810R) 6.0 hours (IP) [nM] (RET(KD: 658-1114 G810R); HiBiT-Degradation) | DC50 (RET(KD: 658-1114 G810R); HiBiT-Degradation) | 293T.144 RET (658-1114) 6.0 hours (IP) [nM] (RET (658-1114)) | Emax (RET (658-1114); % remaining protein) | DC50 (RET (658-1114); [1]) | 293T.165 RET(KD: 658-1114 G810R) 6.0 hours (IP) [nM] (RET(KD: 658-1114 G810R))
CCC1(C(=O)NC(C)C)CCN(c2ncc(-c3cc(-c4cnn(C5CCN(C(=O)CN6CCC(c7ccc(NC8CCC(=O)NC8=O)cc7F)CC6)CC5)c4)cn4ncc(C#N)c34)cn2)CC1 (stereo not drawn) [Compound 59, 1-[5-[3-cyano-6-[1-[1-[2-[4-[4-[(2,6-dioxo-3-piperidyl)amino]-2-fluoro-phenyl]-1-piperidyl]acetyl]-4-piperidyl]pyrazol-4-yl]pyrazolo[1,5-a]pyridin-4-yl]pyrimidin-2-yl]-4-ethyl-N-isopropyl-piperidine-4-carboxamide] | ++++ (< 50 nM = ++++) | < 0.05 µM | < 30% | < 50% | < 0.1 µM | +++ (<50% = +++) | ++++ (< 50 nM = ++++) | < 0.1 µM | – | – | – | –
CC(=O)N1CCN(c2ccc(-c3cc(-c4cnn(C5CCN(C(=O)CN6CCC(c7ccc(NC8CCC(=O)NC8=O)cc7)CC6)CC5)c4)cn4ncc(C#N)c34)cn2)CC1 (stereo not drawn) [Compound 42, 4-[6-(4-acetylpiperazin-1-yl)-3-pyridyl]-6-[1-[1-[2-[4-[4-[(2,6-dioxo-3-piperidyl)amino]phenyl]-1-piperidyl]acetyl]-4-piperidyl]pyrazol-4-yl]pyrazolo[1,5-a]pyridine-3-carbonitrile] | ++++ (< 50 nM = ++++) | < 0.05 µM | < 30% | < 50% | < 0.1 µM | +++ (<50% = +++) | ++++ (< 50 nM = ++++) | < 0.1 µM | – | – | – | –
CCC1(C(=O)NC2CCC2)CCN(c2ccc(-c3nc(-c4cnn([C@H]5CC[C@H](CN6CCN(c7ccc(N[C@H]8CCC(=O)NC8=O)cc7F)CC6)CC5)c4)cn4ncc(C#N)c34)cn2)CC1 [Compound 189, 1-[5-[3-cyano-6-[1-[4-[[4-[4-[[(3S)-2,6-dioxo-3-piperidyl]amino]-2-fluoro-phenyl]piperazin-1-yl]methyl]cyclohexyl]pyrazol-4-yl]pyrazolo[1,5-a]pyrazin-4-yl]-2-pyridyl]-N-cyclobutyl-4-ethyl-piperidine-4-carboxamide] | – | – | – | < 30% | < 0.1 µM | – | – | – | ++++ (<50 nM = ++++) | < 30% | < 0.05 µM | ++++ (<50 nM = ++++)
CC(C)NC(=O)C1(C)CCN(c2ccc(-c3cc(-c4ccc(N5CCN(C(=O)CN6CCC(c7ccc(OC8CCC(=O)NC8=O)cc7)CC6)CC5)cc4)cn4ncc(C#N)c34)cn2)CC1 (stereo not drawn) [Compound 48, 1-[5-[3-cyano-6-[4-[4-[2-[4-[4-[(2,6-dioxo-3-piperidyl)oxy]phenyl]-1-piperidyl]acetyl]piperazin-1-yl]phenyl]pyrazolo[1,5-a]pyridin-4-yl]-2-pyridyl]-N-isopropyl-4-methyl-piperidine-4-carboxamide] | ++++ (< 50 nM = ++++) | < 0.05 µM | < 30% | < 30% | < 0.1 µM | ++++ (< 30% = ++++) | ++++ (< 50 nM = ++++) | < 0.1 µM | – | – | – | –
CCC1(C(=O)NC(C)C)CCN(c2ccc(-c3cc(-c4cnn([C@H]5CC[C@H](N6CCC(c7ccc(N[C@H]8CCC(=O)NC8=O)cc7F)CC6)CC5)c4)cn4ncc(C#N)c34)cn2)CC1 (single isomer, unassigned) [Compound 194] | – | – | – | < 30% | < 0.05 µM | – | – | – | ++++ (<50 nM = ++++) | < 30% | < 0.05 µM | ++++ (<50 nM = ++++)
CC1(c2ncccn2)CCN(c2ccc(-c3nc(-c4cnn(C5CCN(C(=O)CC6(O)CCN(c7ccc(NC8CCC(=O)NC8=O)cc7F)CC6)CC5)c4)cn4ncc(C#N)c34)cn2)CC1 (stereo not drawn) [Compound 104, 6-[1-[1-[2-[1-[4-[(2,6-dioxo-3-piperidyl)amino]-2-fluoro-phenyl]-4-hydroxy-4-piperidyl]acetyl]-4-piperidyl]pyrazol-4-yl]-4-[6-(4-methyl-4-pyrimidin-2-yl-1-piperidyl)-3-pyridyl]pyrazolo[1,5-a]pyrazine-3-carbonitrile] | – | – | – | < 30% | < 0.05 µM | – | – | – | ++++ (<50 nM = ++++) | < 30% | < 0.05 µM | ++++ (<50 nM = ++++)
COc1cc(N2CCN([C@H]3CC[C@H](n4cc(-c5cn6ncc(C#N)c6c(-c6ccc(N7CC8CC(C7)N8Cc7ccccc7S(C)(=O)=O)nc6)n5)cn4)CC3)CC2)c(F)cc1NC1CCC(=O)NC1=O (stereo partly drawn) [Compound 217, 6-[1-[4-[4-[4-[(2,6-dioxo-3-piperidyl)amino]-2-fluoro-5-methoxy-phenyl]piperazin-1-yl]cyclohexyl]pyrazol-4-yl]-4-[6-[6-[(2-methylsulfonylphenyl)methyl]-3,6-diazabicyclo[3.1.1]heptan-3-yl]-3-pyridyl]pyrazolo[1,5-a]pyrazine-3-carbonitrile] | – | – | – | < 30% | < 0.1 µM | – | – | – | ++++ (<50 nM = ++++) | < 30% | < 0.05 µM | ++++ (<50 nM = ++++)
N#Cc1cnn2cc(-c3cnn([C@H]4CC[C@H](N5CCC(c6ccc(NC7CCC(=O)NC7=O)cc6F)CC5)CC4)c3)nc(-c3ccc(N4CCC5(CC4)OCc4cccnc45)nc3)c12 (single isomer, unassigned) [Compound 148, 4-(6-(5H-Spiro[furo[3,4-b]pyridine-7,4′-piperidin]-1′-yl)pyridin-3-yl)-6-(1-((1r, 4r)-4-(4-(4-((2,6-dioxopiperidin-3-yl)amino)-2-fluorophenyl)piperidin-1-yl)cyclohexyl)-1H-pyrazol-4-yl)pyrazolo[1,5-a]pyrazine-3-carbonitrile] | – | – | – | < 30% | < 0.05 µM | – | – | – | ++++ (<50 nM = ++++) | < 30% | < 0.05 µM | ++++ (<50 nM = ++++)
N#Cc1cnn2cc(-c3cnn(C4CCN(C(=O)CC5(O)CCN(c6ccc(NC7CCC(=O)NC7=O)cc6F)CC5)CC4)c3)nc(-c3ccc(N4CCN(C(=O)c5ccon5)CC4)nc3)c12 (stereo not drawn) [Compound 116, 6-(1-(1-(2-(1-(4-((2,6-dioxopiperidin-3-yl)amino)-2-fluorophenyl)-4-hydroxypiperidin-4-yl)acetyl)piperidin-4-yl)-1H-pyrazol-4-yl)-4-(6-(4-(isoxazole-3-carbonyl)piperazin-1-yl)pyridin-3-yl)pyrazolo[1,5-a]pyrazine-3-carbonitrile] | – | – | – | < 30% | < 0.05 µM | – | – | – | ++++ (<50 nM = ++++) | < 30% | < 0.05 µM | ++++ (<50 nM = ++++)
COc1ccc(CN2C[C@H]3COC[C@@H](C2)N3c2ccc(-c3nc(-c4cnn([C@H]5CC[C@H](N6CCN(c7ccc(NC8CCC(=O)NC8=O)cc7F)CC6)CC5)c4)cn4ncc(C#N)c34)cn2)cn1 (stereo partly drawn) [Compound 160, 6-[1-[4-[4-[4-[(2,6-dioxo-3-piperidyl)amino]-2-fluoro-phenyl]piperazin-1-yl]cyclohexyl]pyrazol-4-yl]-4-[6-[(1R,5S)-7-[(6-methoxy-3-pyridyl)methyl]-3-oxa-7,9-diazabicyclo[3.3.1]nonan-9-yl]-3-pyridyl]pyrazolo[1,5-a]pyrazine-3-carbonitrile] | – | – | – | < 30% | < 0.05 µM | – | – | – | ++++ (<50 nM = ++++) | < 30% | < 0.05 µM | ++++ (<50 nM = ++++)
